The source of these data is paper PMC11012289, “The Discovery of New Inhibitors of Insulin-Regulated Aminopeptidase by a High-Throughput Screening of 400,000 Drug-like Compounds” (International Journal of Molecular Sciences, 2024).

Details of test [1]: method as in ELF screening history. The conditions noted are these: ref ELF screening history, cited from earlier work; for Enzyme Active: number of ELF enzyme screens in which the compound was active; for Targets active: number of ELF screens in which the compound was active; for Enzyme Active %: share of ELF enzyme targets screened; for Targets Active %: share of all ELF targets screened.

In test [2] the target is T1, IRAP (Homo sapiens, UniProt Q9UIQ6).
T1 construct: The screen was performed with the soluble truncated IRAP enzyme; made in house
As to the kind of experiment: Primary fluorescence IRAP assay (L-Leucine-7-amido-4-methylcoumarin cleavage). It is filed as biochemical. The note with it: for LipE: calculated from (pIC50Fluorescence − LogD); for LogEC50 (best-fit): log of concentration in M; for EC50: read-out: EC50 (best-fit). The text has this:
The primary biochemical assay was developed to measure the enzymatic activity of IRAP.
To ensure biochemically sound, optimal, robust, and affordable assay conditions for large-scale screening, several factors need to be considered. […] For both primary fluorescence and orthogonal absorbance assays, non-binding 1536-well assay plates were used, and 0.05% BSA was included in the assay buffer to minimize the issues associated with protein sticking to plastics. The substrate Km values were determined in two separate experiments using two different batches of IRAP protein. For this, the IRAP progress curve was monitored every 5 min for 2 h using an Envision multimode plate reader (PerkinElmer, Waltham, MA, USA).
First, 10 nL of test compounds (4 mM) or 100% DMSO was dispensed into the 1536-well assay plates using an Echo acoustic liquid handler (Beckman Coulter, Brea, CA, USA). Then, 2 μL of protein working solution (5 × 10^−4 mg/mL) was dispensed to the negative control (min effect) and compound wells (final well concentration 2.5 × 10^−4 mg/mL) using a Certus Flex liquid dispenser (Fritz Gyger AG, Thun, Switzerland) and 2 μL assay buffer to the positive control wells (max effect) using a FLEXdrop (PerkinElmer, Waltham, MA, USA).
Figure S9. Reference compounds in Fluorescence IRAP assay with different end volumes in 1536-well format.
mg/ml) and 2 or 4 µL L -Leucine-7-amido-4-methylcoumarin (f.a.c.
Plates were measured on the Envision every 10 minutes for 140 minutes (data
shown up to 2 hours). %Effect was calculated using no protein as MAX effect (assay buffer was added instead of IRAP).

In test [3] the target is T1, IRAP. As to the kind of experiment: Orthogonal absorbance IRAP assay (L-Leucine para-nitroanilide cleavage). It is filed as biochemical. The conditions noted are these: for IC50: read-out: Absorbance pIC50 (converted). The text has this:
The primary biochemical assay was developed to measure the enzymatic activity of IRAP. […] To establish an orthogonal assay, an alternative L-Leucine para-nitroanilide substrate was used, which IRAP turns over to L-Leucine and para-nitroaniline and is measurable by absorbance at 405 nm (Supplementary Figure S2B).
To ensure biochemically sound, optimal, robust, and affordable assay conditions for large-scale screening, several factors need to be considered. These include the final concentration of substrates, based on the determined substrate Km value; the assay kinetics and reaction linearity; achieving a minimal, rate limiting protein concentration; identifying optimal buffer additives and concentrations; the choice of assay plate type; the final assay volume per well; the stability of reagents; the magnitude and variance of the signal; and the potency and rank order of reference compounds. For both primary fluorescence and orthogonal absorbance assays, non-binding 1536-well assay plates were used, and 0.05% BSA was included in the assay buffer to minimize the issues associated with protein sticking to plastics. The substrate Km values were determined in two separate experiments using two different batches of IRAP protein. For this, the IRAP progress curve was monitored every 5 min for 2 h using an Envision multimode plate reader (PerkinElmer, Waltham, MA, USA). […] To evaluate if using substrate concentrations close to the determined Km values results in sufficient dynamic range within the linear range of the enzymatic reaction, Z′ and S/B were calculated for multiple time points up to 2.5 h in the presence and absence of reference compounds in both assays. The primary fluorescence assay reached an optimal Z′-value after 1 h when using 37.5 μM substrate (Supplementary Figure S5). For the absorbance, 2 h was required for the enzyme reaction time; however, using ~0.4 mM substrate was associated with increased assay variation and a poor Z′ (Supplementary Figure S6).
The orthogonal assay was performed in a black non-binding 1536-well plate (Corning 3728) and sealed with universal lids (Corning 3098). First, 20 nL of test compounds (4 mM) or 100% DMSO was dispensed into the 1536-well assay plates using an Echo acoustic liquid handler (Beckman Coulter). Then, 4 μL of protein working solution (5 × 10^−4 mg/mL) was dispensed to the negative control (min effect) and compound wells (final well concentration 2.5 × 10^−4 mg/mL) using the Certus Flex liquid dispenser (Fritz Gyger AG) and 4 μL assay buffer to the positive control wells (max effect) using the FLEXdrop (PerkinElmer). Next, 4 μL of 2 mM substrate working solution was dispensed into all wells using the FLEXdrop (final well concentration 1 mM). The assay plates were then centrifuged at 187.5× g for 30 s, incubated in the dark at RT for 120 min, and finally read on an Envision plate reader (PerkinElmer) (absorbance at 405 nm, 10 flashes per second). During the dose–response curve analysis in the orthogonal assay, 80 nL of compound (range 2.00 × 10^−3 M–2.74 × 10^−6 M) or 100% DMSO was dispensed into the assay plates using an Echo acoustic liquid handler (Beckman Coulter) with final well concentration range of 20 μM–27.4 nM compound and 1% DMSO.

In test [4] the target is T1, IRAP. The experiment in a line: Thermal shift (TSA) IRAP assay. It is filed as binding. An excerpt: The Thermal shift assay (TSA) is a biophysical technique measuring protein thermal stability. The assay relies on a fluorescent dye that is quenched in an aqueous environment but fluoresces when de-solvated in non-polar environments, such as the hydrophobic pockets of proteins. The target protein is mixed with the dye and heated gradually until it becomes completely denatured; as it unfolds or melts, the dye binds to newly exposed hydrophobic regions of the protein, resulting in a significant increase in fluorescence emission detected by a PCR system. The melting temperature (Tm) is calculated from the protein melt curve, and changes in Tm (known as ΔTm) are correlated with changes in protein stability and ligand binding. […] For the TSA assay, vehicle (DMSO) or compound was dispensed into MicroAmp Endura optical qPCR plates at the desired volume using an Echo acoustic liquid handler. […] The plates were then centrifuged for 10 s at 1000 rpm and sealed with Clear PCR-compatible plate seals.

The target in test [5] is T1, IRAP. The experiment in a line: Deselection fluorescence IRAP assay with 10 µM zinc. The class given is biochemical. The note with it: 10 µM ZnSO4 in assay buffer; for IC50: read-out: Fluorescence + Zn pIC50 (converted). The procedure: To prepare the assay buffer (50 mM Tris-HCl pH 7.4, 150 mM NaCl, 0.1 mM PMSF, 0.05% BSA) of the primary and orthogonal assays, 1 M Tris-HCl was prepared by dissolving 60.57 g Trizma-base (Mw 121.14 g/mol) (Sigma 93362-250G) in 500 mL MQ water, and the pH was adjusted to 7.4 using 4 M HCl. The solution was filtered with a 0.45 μm filter and stored at room temperature (RT). Then, 2 M NaCl stock was prepared by dissolving 29.22 g NaCl (Mw 58.44 g/mol) (Sigma S7653-250G) in 250 mL MQ water. The solution was filtered with a 0.45 μm filter and stored at RT. Next, 100 mM Phenylmethanesulfonylfluoride (PMSF) stock was prepared by dissolving 1 g PMSF (Mw 174.19 g/mol) (Sigma 78830-1G) in 57.4 mL isopropanol (Sigma I9516-500ML) and stored at 4 °C. A 10% Bovine Serum Albumin (BSA) stock solution was prepared by dissolving 2 g BSA (Mw 66.5 kDa) (Sigma A7030-50G), which was dissolved in 20 mL MQ water. The solution was filtered with a 0.45 μm filter, aliquoted, and stored at −20 °C. For the deselection assay buffer (50 mM Tris-HCl pH 7.4, 150 mM NaCl, 0.1 mM PMSF, 0.05% BSA, 10 μM ZnSO4), 1 mM ZnSO4 solution was prepared by dissolving 28.8 mg ZnSO4 (Mw 287.56 g/mol) (Sigma Z0251-100G) in 100 mL MQ water. The solution was filtered with a 0.45 μm filter and stored at RT. For the TSA assay buffer (50 mM Tris HCL, 150 mM NaCl, pH 7.4), stocks of 1 M Tris HCL and 2 M NaCl were prepared as described above.

Setting [6] is: 1 mM L-Leucine p-Nitroanilide, 120 min RT.
Setting [7] is: screening hits at 30 µM, 1% DMSO.
The mark [8] stands for this setting: 1536-well format, steady-state velocity, read-out: Km (substrate).
[9] abbreviates: 37.5 µM L-Leucine-7-amido-4-methylcoumarin, 60 min RT, dose-response 20 µM-27.4 nM, read-out: Fluorescence pIC50 (converted).

Molecules are shown by their SMILES. Read-outs that look alike come from different tables or passages of the source.

T1 sequence (Q9UIQ6 155-1025 limits assumed): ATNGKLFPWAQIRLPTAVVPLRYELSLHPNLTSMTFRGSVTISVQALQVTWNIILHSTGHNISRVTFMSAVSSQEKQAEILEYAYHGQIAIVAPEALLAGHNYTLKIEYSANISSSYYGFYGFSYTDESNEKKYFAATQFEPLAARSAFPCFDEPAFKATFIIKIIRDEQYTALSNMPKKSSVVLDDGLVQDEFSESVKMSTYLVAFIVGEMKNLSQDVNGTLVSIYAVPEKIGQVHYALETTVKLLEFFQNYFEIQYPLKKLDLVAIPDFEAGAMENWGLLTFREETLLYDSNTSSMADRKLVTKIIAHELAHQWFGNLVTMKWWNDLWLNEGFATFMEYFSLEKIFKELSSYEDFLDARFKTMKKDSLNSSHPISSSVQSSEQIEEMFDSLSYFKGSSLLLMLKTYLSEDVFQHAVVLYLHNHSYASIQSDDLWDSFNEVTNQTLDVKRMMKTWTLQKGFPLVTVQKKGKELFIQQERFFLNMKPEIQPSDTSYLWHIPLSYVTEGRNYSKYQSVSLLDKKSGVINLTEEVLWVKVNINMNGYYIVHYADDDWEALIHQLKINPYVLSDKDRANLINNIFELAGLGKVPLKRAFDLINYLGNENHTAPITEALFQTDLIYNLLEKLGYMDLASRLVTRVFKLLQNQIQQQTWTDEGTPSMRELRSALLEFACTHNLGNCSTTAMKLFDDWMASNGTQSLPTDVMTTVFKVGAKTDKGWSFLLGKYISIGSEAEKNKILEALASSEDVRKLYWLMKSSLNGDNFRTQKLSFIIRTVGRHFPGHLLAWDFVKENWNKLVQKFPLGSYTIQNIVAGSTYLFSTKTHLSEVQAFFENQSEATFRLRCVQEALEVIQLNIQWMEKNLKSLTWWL

Turning to `Cc1ccc(-c2nc(C3CCCN3C(=O)NCc3ccccc3)n3ccccc23)cc1` (racemic) [QHL36], in test [1], the “Enzyme Active” value is recorded as 4, the Targets active is recorded as 6, the “Enzyme Active %” value is listed as 7.1% and the “Targets Active %” value is listed as 5.8%. For the same molecule, on IRAP [2] (37.5 µM L-Leucine-7-amido-4-methylcoumarin, 60 min RT, dose-response 20 µM-27.4 nM), the “Fluorescence pIC50” value came out at 5.40. Moreover, the IC50 on IRAP [2] (37.5 µM L-Leucine-7-amido-4-methylcoumarin, 60 min RT, dose-response 20 µM-27.4 nM, read-out: Fluorescence IC50) turned out to be 3.98 µM. Moreover, the LipE at IRAP [2] was 0.29. Also, at IRAP [3] (setting [6]), the “Absorbance pIC50” value amounted to 5.80. For the same molecule, on IRAP [4] (setting [7]), the “TSA (∆°C), thermal shift of IRAP” value amounted to 0.3 °C. At IRAP [5], the “Fluorescence + Zn pIC50” value came out at 5.31.

As a reminder, the EC50 is the concentration at which the effect is half-maximal. As to `O=S(=O)(Nc1cccc(-c2nnn[nH]2)c1)c1cc(Cl)c(Cl)cc1Cl` [I, reference compound], the “LogEC50 (best-fit)” value at IRAP [2] (4 µl end volume, 30 min) was -4.565; at IRAP [2] (4 µl end volume, 60 min) it was -4.541; at IRAP [2] (4 µl end volume, 90 min) it was -4.517; on IRAP [2] (4 µl end volume, 120 min), -4.5; on IRAP [2] (8 µl end volume, 30 min) it was -4.385; on IRAP [2] (8 µl end volume, 60 min), -4.449. Besides, the “LogEC50 (best-fit)” value at IRAP [2] (8 µl end volume, 90 min) was -4.469; at IRAP [2] (8 µl end volume, 120 min), -4.427. The concentration giving a half-maximal response (EC50) at IRAP [2] (4 µl end volume, 30 min) came to 27.2 µM; at IRAP [2] (4 µl end volume, 60 min) it was 28.8 µM; on IRAP [2] (4 µl end volume, 90 min) it was 30.4 µM; on IRAP [2] (4 µl end volume, 120 min) it was 31.6 µM; at IRAP [2] (8 µl end volume, 30 min) it was 41.2 µM; at IRAP [2] (8 µl end volume, 60 min) it was 35.6 µM. Further, the concentration for a half-maximal effect (EC50) at IRAP [2] (8 µl end volume, 90 min) amounted to 34 µM; on IRAP [2] (8 µl end volume, 120 min), 37.4 µM. Further, at IRAP [4] (10-point half-log concentration series), the “stabilization of the thermal melting temperature of IRAP” value is “dose-dependent and saturable”. Besides, the “IRAP Tm” value on IRAP [4] (compound at 400 µM) came to 69.05 ± 0.17 °C.

One may read the Km as the concentration of substrate that gives half-maximal velocity. For `CC(C)C[C@H](N)C(=O)Nc1ccc([N+](=O)[O-])cc1` [L-Leucine p-Nitroanilide, reference compound], the Km at IRAP [3] (setting [8]) was 380 µM.

Consider `Cc1cc(=O)oc2cc(NC(=O)[C@@H](N)CC(C)C)ccc12` [L-Leucine-7-amido-4-methylcoumarin, reference compound], for which the Michaelis-Menten constant (Km) at IRAP [2] (setting [8]) is 36.6 µM.

As a reminder, the ΔTm is the shift of the melting midpoint relative to a reference. In the case of `O=C(Cc1ccccc1S(=O)(=O)N1CCc2ccccc2C1)NO` [QHL1, 2-(2-((3,4-dihydroisoquinolin-2(1H)-yl)sulfonyl)phenyl)-N-hydroxyacetamide], in test [1], the “Enzyme Active” value was 2, the Targets active was 7, the “Enzyme Active %” value is listed as 2.1% and the “Targets Active %” value is 4.7%. In addition, the IC50 on IRAP [2] (setting [9]) is 0.316 µM. Also, at IRAP [2], the LipE was 4.85. The IC50 at IRAP [3] (setting [6]) was 0.871 µM. The thermal shift (ΔTm) at 30 µM at IRAP [4] (setting [7]) stood at 6.77 °C. Moreover, the IC50 on IRAP [5] is 0.316 µM.

Consider `O=C(NO)C(CS(=O)(=O)N1CCC(c2ccc(F)cc2Cl)C1)C1CCOCC1` (stereo not drawn) [QHL2], for which, in test [1], the “Enzyme Active” value was 4, the Targets active is on record as 5, the “Enzyme Active %” value is given as 4.3% and the “Targets Active %” value is on record as 3.4%. Also, the IC50 at IRAP [2] (setting [9]) is 0.355 µM. Moreover, the LipE at IRAP [2] is recorded as 4.89. Further, the IC50 on IRAP [3] (setting [6]) was 0.794 µM. For the same molecule, at IRAP [4] (setting [7]), the shift in melting temperature (ΔTm) at 30 µM amounted to 3.7 °C. Also, the IC50 at IRAP [5] was 0.339 µM.

Take `CC(C)C(CS(=O)(=O)N(Cc1cc2ccccc2o1)C(C)C)C(=O)NO` (stereo not drawn) [QHL3]: in test [1], the “Enzyme Active” value is 3, the Targets active is 4, the “Enzyme Active %” value was 3.2% and the “Targets Active %” value is reported as 2.7%. At IRAP [2] (setting [9]), the IC50 is 0.38 µM. For the same molecule, the LipE on IRAP [2] is listed as 4.08. On IRAP [3] (setting [6]), the IC50 is 0.708 µM. Also, the ΔTm at 30 µM at IRAP [4] (setting [7]) amounted to 5.22 °C. Moreover, the IC50 on IRAP [5] is 0.389 µM.
